Legend:
[1] = stability in solvents observed during isolation and NMR; type: physicochemical; conditions: deuterated chloroform
Description: Therefore, all subsequent attempts at isolation avoided the use of chloroform or exposure of samples to CDCl3, and no further problems with decomposition or loss of bioactivity were encountered. Moreover, there was no indication of any instability of the pure isolated compounds in any of the other common organic solvents employed, nor in aqueous or biological media.
Signals obscured by or unresolved in the first solvent were readily discernible in the second. Consequently, ^1H-^1H COSY, HMQC, and HMBC NMR data were gathered in both solvents. […] From a combination of the HMQC (Table 2) and the COSY spectral data, the partial structures illustrated in FIGS. 5A-5C were generated.

[2] = test system: HOP-92; assay: NCI 60 cell-line screen; type: cell-based; conditions: Homo sapiens, Lung, averaged, quadruplicate testing, read-out: negative log10 GI50 (converted)
Description: (§1) It is the concentration where 100×(T−To)/To=−50=PG. […] Res., 34, 91-109 (1995).

[3] = test system: PC-3; assay: NCI 60 cell-line screen; type: cell-based; conditions: Homo sapiens, Prostate, averaged, quadruplicate testing, read-out: negative log10 GI50 (converted)
Description: as §1

[4] = test system: COLO 205; assay: NCI 60 cell-line screen; type: cell-based; conditions: Homo sapiens, Colon, averaged, quadruplicate testing, read-out: negative log10 GI50 (converted)
Description: as §1

[5] = test system: BT-549; assay: NCI 60 cell-line screen; type: cell-based; conditions: Homo sapiens, Breast, averaged, quadruplicate testing, read-out: negative log10 GI50 (converted)
Description: as §1

[6] = test system: MALME-3M; assay: NCI 60 cell-line screen; type: cell-based; conditions: Homo sapiens, Melanoma, averaged, quadruplicate testing, read-out: negative log10 GI50 (converted)
Description: as §1

[7] = test system: CAKI-1; assay: NCI 60 cell-line screen; type: cell-based; conditions: Homo sapiens, Kidney, averaged, quadruplicate testing, read-out: negative log10 GI50 (converted)
Description: as §1

[8] = test system: SNB-19; assay: NCI 60 cell-line screen; type: cell-based; conditions: Homo sapiens, Brain, averaged, quadruplicate testing, read-out: negative log10 GI50 (converted)
Description: as §1

[9] = test system: HCT-116; assay: NCI 60 cell-line screen; type: cell-based; conditions: Homo sapiens, Colon, averaged, quadruplicate testing, read-out: negative log10 GI50 (converted)
Description: as §1

[10] = test system: RPMI-8226; assay: NCI 60 cell-line screen; type: cell-based; conditions: Homo sapiens, Leukemia, averaged, quadruplicate testing, read-out: negative log10 GI50 (converted)
Description: as §1

[11] = test system: OVCAR-5; assay: NCI 60 cell-line screen; type: cell-based; conditions: Homo sapiens, Ovary, averaged, quadruplicate testing, read-out: negative log10 GI50 (converted)
Description: as §1

[12] = test system: SK-OV-3; assay: NCI 60 cell-line screen; type: cell-based; conditions: Homo sapiens, Ovary, averaged, quadruplicate testing, read-out: negative log10 GI50 (converted)
Description: as §1

[13] = test system: A498; assay: NCI 60 cell-line screen; type: cell-based; conditions: Homo sapiens, Kidney, averaged, quadruplicate testing, read-out: negative log10 GI50 (converted)
Description: as §1

[14] = test system: UO-31; assay: NCI 60 cell-line screen; type: cell-based; conditions: Homo sapiens, Kidney, averaged, quadruplicate testing, read-out: negative log10 GI50 (converted)
Description: as §1

[15] = test system: UACC-62; assay: NCI 60 cell-line screen; type: cell-based; conditions: Homo sapiens, Melanoma, averaged, quadruplicate testing, read-out: negative log10 GI50 (converted)
Description: as §1

[16] = test system: MCF-7; assay: NCI 60 cell-line screen; type: cell-based; conditions: Homo sapiens, MCF7, Breast, averaged, quadruplicate testing, read-out: negative log10 GI50 (converted)
Description: as §1

[17] = test system: HL-60-TB; assay: NCI 60 cell-line screen; type: cell-based; conditions: Homo sapiens, HL-60, read-out: negative log10 GI50 (converted)
Description: as §1

[18] = test system: M14; assay: NCI 60 cell-line screen; type: cell-based; conditions: Homo sapiens, Melanoma, averaged, quadruplicate testing, read-out: negative log10 GI50 (converted)
Description: as §1

[19] = test system: SF-295; assay: NCI 60 cell-line screen; type: cell-based; conditions: Homo sapiens, Brain, averaged, quadruplicate testing, read-out: negative log10 GI50 (converted)
Description: as §1

[20] = test system: SN-12C; assay: NCI 60 cell-line screen; type: cell-based; conditions: Homo sapiens, SN12C, Kidney, averaged, quadruplicate testing, read-out: negative log10 GI50 (converted)
Description: as §1

[21] = test system: NCI-H226; assay: NCI 60 cell-line screen; type: cell-based; conditions: Homo sapiens, Lung, averaged, quadruplicate testing, read-out: negative log10 GI50 (converted)
Description: as §1

[22] = test system: EKVX; assay: NCI 60 cell-line screen; type: cell-based; conditions: Homo sapiens, Lung, averaged, quadruplicate testing, read-out: negative log10 GI50 (converted)
Description: as §1

[23] = test system: LOX-IMVI; assay: NCI 60 cell-line screen; type: cell-based; conditions: Homo sapiens, Melanoma, averaged, quadruplicate testing, read-out: negative log10 GI50 (converted)
Description: as §1

[24] = test system: SNB-75; assay: NCI 60 cell-line screen; type: cell-based; conditions: Homo sapiens, Brain, averaged, quadruplicate testing, read-out: negative log10 GI50 (converted)
Description: as §1

[25] = test system: HCC-2998; assay: NCI 60 cell-line screen; type: cell-based; conditions: Homo sapiens, Colon, averaged, quadruplicate testing, read-out: negative log10 GI50 (converted)
Description: as §1

[26] = test system: K-562; assay: NCI 60 cell-line screen; type: cell-based; conditions: Homo sapiens, K562, Leukemia, averaged, quadruplicate testing, read-out: negative log10 GI50 (converted)
Description: as §1

[27] = test system: 786-0; assay: NCI 60 cell-line screen; type: cell-based; conditions: Homo sapiens, Kidney, averaged, quadruplicate testing, read-out: negative log10 GI50 (converted)
Description: as §1

[28] = test system: SF-539; assay: NCI 60 cell-line screen; type: cell-based; conditions: Homo sapiens, Brain, averaged, quadruplicate testing, read-out: negative log10 GI50 (converted)
Description: as §1

[29] = test system: IGROV1; assay: NCI 60 cell-line screen; type: cell-based; conditions: Homo sapiens, IGROV-1, Ovary, averaged, quadruplicate testing, read-out: negative log10 GI50 (converted)
Description: as §1

[30] = test system: SR; assay: NCI 60 cell-line screen; type: cell-based; conditions: Homo sapiens, Leukemia, averaged, quadruplicate testing, read-out: negative log10 GI50 (converted)
Description: as §1

[31] = test system: HT29; assay: NCI 60 cell-line screen; type: cell-based; conditions: Homo sapiens, HT-29, Colon, averaged, quadruplicate testing, read-out: negative log10 GI50 (converted)
Description: as §1

[32] = test system: A549/ATCC; assay: NCI 60 cell-line screen; type: cell-based; conditions: Homo sapiens, Lung, averaged, quadruplicate testing, read-out: negative log10 GI50 (converted)
Description: as §1

Question: Which “stability in CDCl3” value [1] does the source give for `CC/C=C\C=C/C(=O)N/C=C/CC1CC(O)C(C)C/C=C/Cc2cccc(O)c2C(=O)O1` (centres unmarked) [salicylihalamide A] here?
Answer: sensitivity of salicylihalamide A to CDCl3

Question: What about the GI50 [2] of the same compound?
Answer: 17 nM

Question: And the GI50 [3]?
Answer: 30.9 nM

Question: What about the GI50 [4] of the same compound?
Answer: 8.51 nM

Question: What about the GI50 [5] of the same compound?
Answer: 0.501 nM

Question: And the GI50 [6]?
Answer: 24 nM

Question: What about the GI50 [7] of the same compound?
Answer: 1.1 nM

Question: What about the GI50 [8] of the same compound?
Answer: 339 nM

Question: What about the GI50 [9] of the same compound?
Answer: 1.82 nM

Question: What about the GI50 [10] of the same compound?
Answer: 12.9 nM

Question: And the GI50 [11]?
Answer: 7.76 nM

Question: And the GI50 [12]?
Answer: 2880 nM

Question: And the GI50 [13]?
Answer: 282 nM

Question: What about the GI50 [14] of the same compound?
Answer: 4.9 nM

Question: And the GI50 [15]?
Answer: 4.17 nM

Question: And the GI50 [16]?
Answer: 75.9 nM

Question: What about the GI50 [17] of the same compound?
Answer: 0.912 nM

Question: And the GI50 [18]?
Answer: 1.2 nM

Question: And the GI50 [19]?
Answer: 1.1 nM

Question: What about the GI50 [20] of the same compound?
Answer: 17 nM

Question: And the GI50 [21]?
Answer: 1.58 nM

Question: And the GI50 [22]?
Answer: 30.2 nM

Question: And the GI50 [23]?
Answer: 0.776 nM

Question: What about the GI50 [24] of the same compound?
Answer: 617 nM

Question: And the GI50 [25]?
Answer: 182 nM

Question: What about the GI50 [26] of the same compound?
Answer: 3.89 nM

Question: What about the GI50 [27] of the same compound?
Answer: 12 nM

Question: What about the GI50 [28] of the same compound?
Answer: 12.9 nM

Question: And the GI50 [29]?
Answer: 12.9 nM

Question: What about the GI50 [30] of the same compound?
Answer: 3.63 nM

Question: What about the GI50 [31] of the same compound?
Answer: 2.88 nM

Question: What about the GI50 [32] of the same compound?
Answer: 2.88 nM

Source: US7381744B1, “Method of treating osteoporosis comprising vacuolar-type (H+)-ATPase-inhibiting compounds” (The United States of America as represented by the …, priority 1999, dated 2008)
